We go through 1 molecule from US20190314379A1, “METHODS OF USING CANNABINOID CB2 RECEPTOR AGONIST COMPOSITIONS TO SUPPRESS AND PREVENT OPIOID TOLERANCE AND WITHDRAWAL IN A SUBJECT” (Indiana University Research and Technology Corporation, priority 2018, published 2019).

SMILES strings stand for the structures. Entries after “also recorded” stand apart in the source; their conditions may differ.

Data set [1] addresses T1, mouse CB2 receptors (Mus musculus, UniProt P47936).
T1 construct: expressed in transfected cells
In words: Arrestin recruitment (PathHunter CHO K1CNR2, enzyme complementation). The data set is classed as cell-based.

Data set [2] deals with T1, mouse CB2 receptors. In words: Phosphorylated ERK1/2 detection, HEK mCB2. As to conditions: for Emax: read-out: pERK1/2 Emax. The data set is classed as cell-based.
The conditions of data set [3]: in vivo; cited from earlier work.
For data set [4], the system named is joint pain induced by intra-articular monoiodoacetic acid. As to conditions: 0.3 mg/kg p.o.; cited from earlier work.
The test system of data set [5] is osteoarthritic knee pain. As to conditions: cited from earlier work.
Data set [6] deals with T2, human CB2 (Homo sapiens, UniProt P34972). In words: On-cell western for receptor internalization, HEK hCB2. The class given is cell-based. Details: expressed in transfected cells.
T2 sequence (P34972 whole entry): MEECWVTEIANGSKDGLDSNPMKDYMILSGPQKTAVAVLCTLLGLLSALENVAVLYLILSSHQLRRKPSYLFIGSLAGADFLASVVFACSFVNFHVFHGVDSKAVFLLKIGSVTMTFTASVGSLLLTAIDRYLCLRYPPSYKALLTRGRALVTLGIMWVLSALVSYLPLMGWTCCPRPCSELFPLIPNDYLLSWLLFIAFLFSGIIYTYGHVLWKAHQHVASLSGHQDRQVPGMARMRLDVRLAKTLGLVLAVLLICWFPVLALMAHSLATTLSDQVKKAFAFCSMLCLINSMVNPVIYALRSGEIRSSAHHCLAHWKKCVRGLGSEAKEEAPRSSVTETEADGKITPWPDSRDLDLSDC
Data set [7] concerns the target T2, human CB2. In words: Phosphorylated ERK1/2 detection, HEK hCB2. The data set is classed as cell-based. Details: expressed in transfected cells. As to conditions: for Emax: read-out: pERK1/2 Emax.

T1 sequence (P47936 whole entry): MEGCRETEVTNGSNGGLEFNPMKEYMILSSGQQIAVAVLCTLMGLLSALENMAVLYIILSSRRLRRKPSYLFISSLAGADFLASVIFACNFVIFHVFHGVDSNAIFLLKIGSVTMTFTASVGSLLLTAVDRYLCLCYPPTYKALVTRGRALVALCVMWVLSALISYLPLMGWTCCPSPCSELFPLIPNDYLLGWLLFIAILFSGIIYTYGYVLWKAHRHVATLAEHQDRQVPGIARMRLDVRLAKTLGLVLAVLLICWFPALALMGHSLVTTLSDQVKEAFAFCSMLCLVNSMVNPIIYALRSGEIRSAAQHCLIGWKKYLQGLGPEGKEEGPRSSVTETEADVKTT

`Cc1nc(N2CCN(C)CC2)c2nc(-c3ccccc3Cl)n(C3CCOCC3)c2n1` [LY2828360, 8-(2-chlorophenyl)-2-methyl-6-(4-methylpiperazin-1-yl)-9-(tetrahydro-2H-pyran-4-yl)-9H-purine]: the arrestin recruitment result in data set [1] (CHO cells expressing mCB2, 90-minute drug incubation) was “failed to do so”. The Emax stood at 97.9% in data set [1] (mouse CB2, 90 mins incubation, read-out: Arrestin Emax); 4.1% in data set [2] (mouse CB2, 05 mins incubation); 43.6% in data set [2] (mouse CB2, 20 mins incubation); 10.2% in data set [6] (human CB2, 90 mins incubation, read-out: Internalization Emax); 22.1% in data set [7] (human CB2, 05 mins incubation); 32.3% in data set [7] (human CB2, 30 mins incubation). The “ERK1/2 phosphorylation time course” value was “had no effect at 5- and 10-minute time points but increased ERK1/2 phosphorylation at 20, 30, and 40 minutes” in data set [2] (mCB2, 1 μM); “increased ERK1/2 phosphorylation after 30 minutes, but not at 5 minutes” in data set [7] (hCB2, 1 pM). Further, the “ERK1/2 phosphorylation after PTX treatment” value in data set [2] (mCB2, 1 μM, PTX) was “abolished the 20-minute phosphorylation of ERK1/2”; in data set [7] (hCB2, 1 pM, PTX), “abolished ERK1/2 phosphorylation”. Moreover, the “ERK1/2 phosphorylation, concentration response” value in data set [2] (mCB2, 5 minutes) is “failed to affect pERK1/2 levels”; in data set [2] (mCB2, 20 minutes), “increased ERK1/2 phosphorylation”. For the same molecule, the “effect on ERK1/2 phosphorylation in presence of SR144528” value in data set [2] (mCB2, 20 minutes, SR144528 1 μM) is reported as “blocked”. Also, the EC50 in data set [2] (mouse CB2, 20 mins incubation, read-out: pERK1/2 EC50) amounted to 339 nM. In addition, the “central nervous system (CNS) penetration” value in data set [3] is reported as “good”. The “efficacy compared with diclofenac” value in data set [4] is on record as “equivalent efficacy”. In addition, in data set [4], the “reversal of pain, incapacitance testing” value is “dose-related reversal of pain”. Also, the “risks or discomforts in human subjects” value in data set [5] (osteoarthritic pain, up to 80 mg for 4 weeks) is “No specific risks or discomforts”. Also, in data set [5] (patients with osteoarthritic knee pain, phase 2), the “primary endpoint vs placebo / relief of osteoarthritis pain” value was “ineffective in relieving pain associated with osteoarthritis; also recorded: did not differ”. Moreover, the receptor internalization result in data set [6] (HEK hCB2) was “failed to internalize the receptor”. Further, the “stimulated phosphorylation of ERK1/2 in presence of SR144528” value in data set [7] (hCB2, SR144528 (1 pM)) is on record as “completely blocked”.
